Results from US5387684A, “Isoindazole compound” (The Green Cross Corporation, priority 1992, dated 1995).
Structures can show the parent of a compound that is named as a salt.

Target: T1, angiotensin II receptor (Rattus norvegicus, UniProt P25095)
T1 sequence (P25095 1-359): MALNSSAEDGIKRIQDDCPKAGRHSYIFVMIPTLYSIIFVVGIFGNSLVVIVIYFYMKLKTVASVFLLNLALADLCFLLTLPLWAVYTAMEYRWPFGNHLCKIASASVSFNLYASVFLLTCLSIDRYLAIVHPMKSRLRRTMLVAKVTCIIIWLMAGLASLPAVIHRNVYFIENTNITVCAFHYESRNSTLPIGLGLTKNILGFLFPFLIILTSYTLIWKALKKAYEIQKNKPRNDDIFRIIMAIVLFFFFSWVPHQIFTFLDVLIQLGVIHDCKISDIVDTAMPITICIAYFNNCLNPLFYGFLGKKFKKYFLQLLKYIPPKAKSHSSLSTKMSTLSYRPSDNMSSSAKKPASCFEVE
Test: Inhibition of binding of angiotensin II to rat smooth muscle cells (125I-AII)
Details: ^125 I-Tyr^4-angiotensin II, smooth muscle cells from rat aorta, room temperature, 1 hour; read-out: inhibitory action (IC50) on the binding of angiotensin II to the receptor

SMILES	IC50 [nM]
CCc1nc2c(C)cc(C)nc2n1Cc1ccc2nn(-c3ccccc3C(=O)O)c(Br)c2c1	2
CCCCc1nc(Cl)c(CO)n1Cc1ccc2nn(-c3ccccc3C(=O)O)c(Br)c2c1 [Example 4, 1-[3-bromo-2-(2-carboxyphenyl)-2H-indazol-5-yl]methyl-2-butyl-4-chloro-5-(hydroxymethyl)-1H-imidazole]	4.3
CCCCc1nc(Cl)c(CO)n1Cc1ccc2nn(-c3ccccc3C(=O)O)cc2c1 [Example 5, 2-butyl-4-chloro-1-[2-(2-carboxyphenyl)-2H-indazol-5-yl]methyl-5-(hydroxymethyl)-1H-imidazole]	40
CCCCc1nc(Cl)c(C=O)n1Cc1ccc2nn(-c3ccccc3C(=O)O)c(Br)c2c1 [Example 6, 2-butyl-4-chloro-1-[3-bromo-2-(2-carboxyphenyl)-2H-indazol-5-yl]methyl-1H-imidazole-5-carbaldehyde]	19
CCCCc1nc(Cl)c(C=O)n1Cc1ccc2nn(-c3ccccc3C(=O)O)cc2c1 [Example 7, 2-butyl-4-chloro-1-[2-(2-carboxyphenyl)-2H-indazol-5-yl]methyl-1H-imidazole-5-carbaldehyde]	130
CCCCc1nc(Cl)c(C(=O)O)n1Cc1ccc2nn(-c3ccccc3C(=O)O)c(Br)c2c1 [Example 9, disodium 1-[3-bromo-2-(2-carboxyphenyl)-2H-indazol-5-yl]methyl-2-butyl-4-chloro-1H-imidazole-5-carboxylate]	2.5
CCCCc1nc(C(=O)O)c(Cl)n1Cc1ccc2nn(-c3ccccc3C(=O)O)c(Br)c2c1 [Example 10, disodium 2-butyl-5-chloro-1-[3-bromo-2-(2-carboxyphenyl)-2H-indazol-5-yl]methyl-1H-imidazole-4-carboxylate]	720
CCCCc1nc(Cl)c(C=O)n1Cc1ccc2nn(-c3ccccc3-c3nnn[nH]3)c(Br)c2c1 [Example 12, 1-{[3-bromo-2-[2-(1H-tetrazol-5-yl)phenyl]-2H-indazol-5-yl]methyl}-2-butyl-4-chloro-1H-imidazole-5-carbaldehyde]	60
CCCCc1nc(Cl)c(CO)n1Cc1ccc2nn(-c3ccccc3-c3nnn[nH]3)c(Br)c2c1 [Example 14, 1-{[3-bromo-2-[2-(1H-tetrazol-5-yl)phenyl]-2H-indazol-5-yl]methyl}-2-butyl-4-chloro-5-(hydroxymethyl)-1H-imidazole]	2.5
CCCc1nc2c(C)ccnc2n1Cc1ccc2nn(-c3ccccc3C(=O)O)c(Br)c2c1 [Example 20, 3-[3-bromo-2-(2-carboxyphenyl)-2H-indazol-5-yl]-methyl-7-methyl-2-propyl-3H-imidazo[4,5-b]pyridine]	1.4
CCc1nc2c(C)cc(C)nc2n1Cc1ccc2nn(-c3ccccc3-c3nnn[nH]3)c(Br)c2c1 [Example 21, 3-{[3-bromo-2-[2-(1H-tetrazol-5-yl)phenyl]-2H-indazol-5-yl]methyl}-2-ethyl-5,7-dimethyl-3H-imidazo[4,5-b]pyridine]	1.1
CCCc1nc2c(C)ccnc2n1Cc1ccc2nn(-c3ccccc3-c3nnn[nH]3)c(Br)c2c1 [Example 22, 3-{[3-bromo-2-[2-(1H-tetrazol-5-yl)phenyl]-2H-indazol-5-yl]methyl}-7-methyl-2-propyl-3H-imidazo[4,5-b]pyridine]	1.8
CCCCc1nc2cccnc2n1Cc1ccc2nn(-c3ccccc3-c3nnn[nH]3)c(Br)c2c1 [Example 23, 3-{[3-bromo-2-[2-(1H-tetrazol-5-yl)phenyl]-2H-indazol-5-yl]methyl}-2-butyl-3H-imidazo[4,5-b]pyridine]	3.1
CCc1nc2c(C)cc(C)nc2n1Cc1ccc2nn(-c3ccccc3-c3nnn[nH]3)c(Cl)c2c1 [Example 24, 3-{[3-chloro-2-[2-(1H-tetrazol-5-yl)phenyl]-2H-indazol-5-yl]methyl}-2-ethyl-5,7-dimethyl-3H-imidazo[4,5-b]pyridine]	0.8
CCc1nc2c(C)cc(C)nc2n1Cc1ccc2nn(-c3cccc(Cl)c3-c3nnn[nH]3)c(Br)c2c1 [Example 25, 3-{[3-bromo-2-[3-chloro-2-(1H-tetrazol-5-yl)-phenyl]-2H-indazol-5-yl]methyl}-2-ethyl-5,7-dimethyl-3H-imidazo[4,5-b]pyridine]	0.72
CCCCc1nc2cccnc2n1Cc1ccc2nn(-c3ccccc3C(=O)O)c(Br)c2c1 [sodium salt]	6.7
